Here are results for one compound from ChEMBL document CHEMBL4190187, “Discovery of pyrazolopyrimidine derivatives as novel inhibitors of ataxia telangiectasia and rad3 related protein (ATR)” (Bioorg Med Chem Lett, 2017).

Experiment [1] concerns the target Serine/threonine-protein kinase ATR (Homo sapiens, UniProt Q13535). The experiment is described as follows: Inhibition of human recombinant FLAG-tagged full length ATR expressed in mammalian cell line co-expressing human recombinant cMyc-tagged full length ATRIP.
Experiment [2] has as its system Tyrosine-protein kinase ABL1 (Homo sapiens), P00519 [Q252H]. The experiment in a line: Inhibition of recombinant human Abl Q252H mutant (27 to end residues) at 1 uM using EAIYAAPFAKKK as substrate after 40 mins in presence of [gamma-33P]ATP by scintillation counting method.
For experiment [3], the target named is ALK tyrosine kinase receptor (Homo sapiens) (UniProt Q9UM73). The experiment in a line: Inhibition of recombinant human ALK (1058 to end residues) at 1 uM using KKKSPGEYVNIEFG as substrate after 40 mins in presence of [gamma-33P]ATP by scintillation counting method.
Experiment [4] addresses Mitogen-activated protein kinase kinase kinase 5 (Homo sapiens) (UniProt Q99683). The experiment in a line: Inhibition of recombinant human ASK1 (649 to 946 residues) at 1 uM using myelin basic protein as substrate after 40 mins in presence of [gamma-33P]ATP by scintillation counting method.
Experiment [5] concerns the target Serine/threonine-protein kinase BRSK1 (Homo sapiens) (UniProt Q8TDC3). The experiment is described as follows: Inhibition of recombinant human BrSK1 (2 to end residues) at 1 uM using KKKVSRSGLYRSPSMPENLNRPR as substrate after 40 mins in presence of [gamma-33P]ATP by scintillation counting method.
Experiment [6] deals with Cyclin-dependent kinase-like 1 (Homo sapiens) (UniProt Q00532). The experiment is described as follows: Inhibition of recombinant human CDKL1 (1 to 303 residues) at 1 uM using RRRFRPASPLRGPPK as substrate after 120 mins in presence of [gamma-33P]ATP by scintillation counting method.
Experiment [7] deals with Epidermal growth factor receptor (Homo sapiens), P00533 [L861Q]. The experiment is described as follows: Inhibition of recombinant human EGFR L861Q mutant (696 to end residues) at 1 uM using poly(Glu,Tyr) 4:1 as substrate after 40 mins in presence of [gamma-33P]ATP by scintillation counting method.
Experiment [8] addresses Tyrosine-protein kinase Fer (Homo sapiens) (UniProt P16591). The experiment is described as follows: Inhibition of recombinant human FER (541 to end residues) at 1 uM using KKKSPGEYVNIEFG as substrate after 40 mins in presence of [gamma-33P]ATP by scintillation counting method.
For experiment [9], the target named is Fibroblast growth factor receptor 4 (Homo sapiens) (UniProt P22455). The experiment is described as follows: Inhibition of recombinant human FGFR4 (442 to 755 residues) at 1 uM using poly(Glu,Tyr) 4:1 as substrate after 40 mins in presence of [gamma-33P]ATP by scintillation counting method.
Experiment [10] concerns Macrophage colony-stimulating factor 1 receptor (Homo sapiens), P07333 [Y969C]. The experiment is described as follows: Inhibition of recombinant human Fms Y969C mutant (538 to end residues) at 1 uM using EEEEYEEEEEEYYIIEEEEEEYEEEEEEYYEEEEEEKKKK as substrate after 40 mins in presence of [gamma-33P]ATP by scintillation counting method.
Experiment [11] has as its target MAP/microtubule affinity-regulating kinase 4 (Homo sapiens) (UniProt Q96L34). The experiment is described as follows: Inhibition of recombinant full-length human MARK4 at 1 uM using KKKVSRSGLYRSPSMPENLNRPR as substrate after 40 mins in presence of [gamma-33P]ATP by scintillation counting method.
For experiment [12], the target named is Dual specificity mitogen-activated protein kinase kinase 1 (Homo sapiens) (UniProt Q02750). The experiment is described as follows: Inhibition of recombinant full-length human MEK1 at 1 uM using inactive MAPK2 as substrate after 40 mins in presence of [gamma-33P]ATP by scintillation counting method.
For experiment [13], the target named is Serine/threonine-protein kinase mTOR (Homo sapiens) (UniProt P42345). The experiment is described as follows: Inhibition of recombinant full-length human mTOR at 1 uM after 40 mins in presence of [gamma-33P]ATP by scintillation counting method.
For experiment [14], the target named is Myosin-IIIb (Homo sapiens) (UniProt Q8WXR4). The experiment in a line: Inhibition of recombinant human MYO3B (1 to 326 residues) at 1 uM using RLGRDKYKTLRQIRQ as substrate after 40 mins in presence of [gamma-33P]ATP by scintillation counting method.
The target in experiment [15] is Serine/threonine-protein kinase Nek1 (Homo sapiens) (UniProt Q96PY6). The experiment is described as follows: Inhibition of recombinant human NEK1 (1 to 505 residues) at 1 uM using RLGRDKYKTLRQIRQ as substrate after 40 mins in presence of [gamma-33P]ATP by scintillation counting method.
Experiment [16] relates to PI3-kinase p110-alpha/p85-alpha (Homo sapiens), P27986+P42336 [E542K]. The experiment in a line: Inhibition of recombinant full-length human p110a E542K mutant/p85a at 1 uM using phosphatidylinositol 4,5-bisphosphate as substrate after 40 mins in presence of [gamma-33P]ATP by scintillation counting method. Format: protein-complex assay.
Experiment [17] concerns the target cAMP-dependent protein kinase catalytic subunit alpha (Homo sapiens) (UniProt P17612). The experiment is described as follows: Inhibition of recombinant full-length human PRKACA at 1 uM using LRRASLG (Kemptide) as substrate after 40 mins in presence of [gamma-33P]ATP by scintillation counting method.
Experiment [18] deals with RAC-gamma serine/threonine-protein kinase (Homo sapiens), Q9Y243 [S472D]. The experiment is described as follows: Inhibition of recombinant human PKBgamma S472D mutant (117 to end residues) at 1 uM using GRPRTSSFAEGKK as substrate after 40 mins in presence of [gamma-33P]ATP by scintillation counting method.
For experiment [19], the target named is Protein kinase C zeta type (Homo sapiens) (UniProt Q05513). The experiment in a line: Inhibition of recombinant human PKCzeta (2 to end residues) at 1 uM using ERMRPRKRQGSVRRRV as substrate after 40 mins in presence of [gamma-33P]ATP by scintillation counting method.
For experiment [20], the target named is Receptor-interacting serine/threonine-protein kinase 1 (Homo sapiens) (UniProt Q13546). The experiment in a line: Inhibition of recombinant human RIPK1 (8 to 322 residues) at 1 uM using myelin basic protein as substrate after 120 mins in presence of [gamma-33P]ATP by scintillation counting method.
The target of experiment [21] is Serine/threonine-protein kinase TAO1 (Homo sapiens) (UniProt Q7L7X3). The experiment is described as follows: Inhibition of recombinant human TAO1 (1 to 327 residues) at 1 uM using myelin basic protein as substrate after 40 mins in presence of [gamma-33P]ATP by scintillation counting method.
For experiment [22], the target named is Mitogen-activated protein kinase 13 (Homo sapiens) (UniProt O15264). The experiment is described as follows: Inhibition of recombinant full-length human SAPK4 at 1 uM using myelin basic protein as substrate after 40 mins in presence of [gamma-33P]ATP by scintillation counting method.
Experiment [23] addresses TGF-beta receptor type-1 (Homo sapiens) (UniProt P36897). The experiment is described as follows: Inhibition of recombinant activated human TGFBR1 (200 to end residues) at 1 uM using casein as substrate after 40 mins in presence of [gamma-33P]ATP by scintillation counting method.
Experiment [24] deals with Serine/threonine-protein kinase ULK3 (Homo sapiens) (UniProt Q6PHR2). The experiment is described as follows: Inhibition of recombinant full-length human ULK3 at 1 uM using casein as substrate after 40 mins in presence of [gamma-33P]ATP by scintillation counting method.

Mitogen-activated protein kinase kinase kinase 5 (Homo sapiens), sequence (Q99683 whole entry, the tested form may be a part): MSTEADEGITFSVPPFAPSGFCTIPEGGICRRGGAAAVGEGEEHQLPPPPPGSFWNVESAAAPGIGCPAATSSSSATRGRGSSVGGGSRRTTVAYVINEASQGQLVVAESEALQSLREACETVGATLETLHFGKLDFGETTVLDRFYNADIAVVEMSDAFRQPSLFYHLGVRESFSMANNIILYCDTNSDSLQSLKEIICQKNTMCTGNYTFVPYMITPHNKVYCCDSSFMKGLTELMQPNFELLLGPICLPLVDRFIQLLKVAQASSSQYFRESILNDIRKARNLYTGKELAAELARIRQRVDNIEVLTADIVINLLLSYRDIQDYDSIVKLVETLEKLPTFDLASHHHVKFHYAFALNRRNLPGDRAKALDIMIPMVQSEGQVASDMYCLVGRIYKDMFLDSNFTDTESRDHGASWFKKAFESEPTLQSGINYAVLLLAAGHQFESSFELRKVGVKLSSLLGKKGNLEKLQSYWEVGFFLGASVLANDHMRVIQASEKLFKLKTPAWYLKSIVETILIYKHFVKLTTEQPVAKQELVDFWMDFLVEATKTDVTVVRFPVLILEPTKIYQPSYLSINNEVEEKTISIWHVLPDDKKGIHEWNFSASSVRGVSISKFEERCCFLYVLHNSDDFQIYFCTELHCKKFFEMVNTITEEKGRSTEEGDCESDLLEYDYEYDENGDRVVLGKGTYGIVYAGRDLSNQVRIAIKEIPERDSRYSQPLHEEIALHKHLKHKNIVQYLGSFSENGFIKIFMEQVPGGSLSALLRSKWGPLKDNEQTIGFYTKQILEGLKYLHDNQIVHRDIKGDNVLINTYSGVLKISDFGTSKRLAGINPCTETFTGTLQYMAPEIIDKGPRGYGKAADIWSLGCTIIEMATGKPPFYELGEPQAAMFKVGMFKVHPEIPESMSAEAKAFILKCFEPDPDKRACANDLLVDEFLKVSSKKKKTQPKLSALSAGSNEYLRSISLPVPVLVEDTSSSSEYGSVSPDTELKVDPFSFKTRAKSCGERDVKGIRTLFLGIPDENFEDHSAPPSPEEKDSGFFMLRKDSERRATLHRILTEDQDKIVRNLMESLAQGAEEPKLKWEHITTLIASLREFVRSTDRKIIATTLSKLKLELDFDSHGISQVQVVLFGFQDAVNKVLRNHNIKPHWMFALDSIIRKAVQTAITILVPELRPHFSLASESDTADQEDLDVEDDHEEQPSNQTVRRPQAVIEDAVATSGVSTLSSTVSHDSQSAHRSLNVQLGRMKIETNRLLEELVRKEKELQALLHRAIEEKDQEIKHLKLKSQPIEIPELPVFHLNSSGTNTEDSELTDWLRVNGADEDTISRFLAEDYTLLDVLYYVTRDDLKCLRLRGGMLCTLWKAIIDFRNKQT
Protein kinase C zeta type (Homo sapiens), sequence (Q05513 whole entry, the tested form may be a part): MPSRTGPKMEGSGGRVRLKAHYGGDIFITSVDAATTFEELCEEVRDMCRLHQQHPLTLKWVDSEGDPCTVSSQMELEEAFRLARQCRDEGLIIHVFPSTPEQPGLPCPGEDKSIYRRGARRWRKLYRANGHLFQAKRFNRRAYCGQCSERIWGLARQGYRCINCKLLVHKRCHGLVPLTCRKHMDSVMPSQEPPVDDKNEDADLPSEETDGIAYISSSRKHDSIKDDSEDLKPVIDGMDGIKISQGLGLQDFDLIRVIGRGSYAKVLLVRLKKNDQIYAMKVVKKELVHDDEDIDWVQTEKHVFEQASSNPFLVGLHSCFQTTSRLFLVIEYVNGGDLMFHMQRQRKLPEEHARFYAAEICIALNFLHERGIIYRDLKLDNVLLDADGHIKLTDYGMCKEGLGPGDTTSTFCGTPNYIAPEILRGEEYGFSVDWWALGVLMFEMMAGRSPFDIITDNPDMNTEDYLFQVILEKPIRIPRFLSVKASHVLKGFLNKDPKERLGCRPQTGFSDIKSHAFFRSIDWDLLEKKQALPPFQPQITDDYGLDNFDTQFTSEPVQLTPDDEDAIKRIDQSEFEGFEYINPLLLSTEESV
Serine/threonine-protein kinase Nek1 (Homo sapiens), sequence (Q96PY6 whole entry, the tested form may be a part): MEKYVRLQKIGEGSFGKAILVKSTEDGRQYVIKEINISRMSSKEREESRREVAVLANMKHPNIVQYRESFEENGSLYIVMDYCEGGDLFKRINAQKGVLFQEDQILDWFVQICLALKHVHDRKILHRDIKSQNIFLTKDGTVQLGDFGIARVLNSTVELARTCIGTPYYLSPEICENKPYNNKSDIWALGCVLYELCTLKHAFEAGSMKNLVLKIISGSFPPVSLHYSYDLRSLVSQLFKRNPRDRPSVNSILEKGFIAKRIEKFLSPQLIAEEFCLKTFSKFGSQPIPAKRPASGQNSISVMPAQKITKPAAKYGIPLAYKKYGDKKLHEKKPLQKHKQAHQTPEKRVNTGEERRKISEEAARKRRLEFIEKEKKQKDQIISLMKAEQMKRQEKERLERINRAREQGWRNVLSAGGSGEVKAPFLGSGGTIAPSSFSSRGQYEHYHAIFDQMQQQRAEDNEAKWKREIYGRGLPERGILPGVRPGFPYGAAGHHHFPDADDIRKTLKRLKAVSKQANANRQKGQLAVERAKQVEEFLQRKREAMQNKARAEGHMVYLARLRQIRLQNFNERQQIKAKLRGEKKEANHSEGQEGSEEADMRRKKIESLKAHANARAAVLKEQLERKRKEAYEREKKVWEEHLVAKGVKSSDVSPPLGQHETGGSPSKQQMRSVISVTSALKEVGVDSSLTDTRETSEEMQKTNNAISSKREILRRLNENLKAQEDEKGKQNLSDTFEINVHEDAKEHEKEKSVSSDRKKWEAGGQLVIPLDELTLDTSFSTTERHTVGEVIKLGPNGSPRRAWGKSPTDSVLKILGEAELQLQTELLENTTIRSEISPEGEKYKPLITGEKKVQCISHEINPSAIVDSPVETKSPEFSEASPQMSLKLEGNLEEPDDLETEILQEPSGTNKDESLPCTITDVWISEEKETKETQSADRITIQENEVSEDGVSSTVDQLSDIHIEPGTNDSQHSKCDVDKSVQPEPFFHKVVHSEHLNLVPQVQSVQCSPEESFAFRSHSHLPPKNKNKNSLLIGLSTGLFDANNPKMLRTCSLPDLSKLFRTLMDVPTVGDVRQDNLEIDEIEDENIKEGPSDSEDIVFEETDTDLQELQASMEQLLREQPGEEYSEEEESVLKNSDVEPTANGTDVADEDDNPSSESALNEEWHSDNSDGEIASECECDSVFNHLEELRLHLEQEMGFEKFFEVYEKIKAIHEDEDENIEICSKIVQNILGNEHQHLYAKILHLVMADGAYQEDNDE
Cyclin-dependent kinase-like 1 (Homo sapiens), sequence (Q00532 whole entry, the tested form may be a part): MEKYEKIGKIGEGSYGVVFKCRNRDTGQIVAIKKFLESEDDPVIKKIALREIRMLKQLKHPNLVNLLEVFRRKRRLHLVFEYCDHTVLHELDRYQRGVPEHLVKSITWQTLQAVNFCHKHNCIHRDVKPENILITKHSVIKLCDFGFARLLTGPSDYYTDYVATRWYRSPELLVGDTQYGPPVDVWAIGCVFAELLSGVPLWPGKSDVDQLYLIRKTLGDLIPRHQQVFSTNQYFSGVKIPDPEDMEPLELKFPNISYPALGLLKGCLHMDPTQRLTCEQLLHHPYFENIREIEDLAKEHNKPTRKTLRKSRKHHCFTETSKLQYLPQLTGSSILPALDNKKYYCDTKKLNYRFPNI
RAC-gamma serine/threonine-protein kinase (Homo sapiens), Q9Y243 [S472D], sequence (Q9Y243 whole entry S472D): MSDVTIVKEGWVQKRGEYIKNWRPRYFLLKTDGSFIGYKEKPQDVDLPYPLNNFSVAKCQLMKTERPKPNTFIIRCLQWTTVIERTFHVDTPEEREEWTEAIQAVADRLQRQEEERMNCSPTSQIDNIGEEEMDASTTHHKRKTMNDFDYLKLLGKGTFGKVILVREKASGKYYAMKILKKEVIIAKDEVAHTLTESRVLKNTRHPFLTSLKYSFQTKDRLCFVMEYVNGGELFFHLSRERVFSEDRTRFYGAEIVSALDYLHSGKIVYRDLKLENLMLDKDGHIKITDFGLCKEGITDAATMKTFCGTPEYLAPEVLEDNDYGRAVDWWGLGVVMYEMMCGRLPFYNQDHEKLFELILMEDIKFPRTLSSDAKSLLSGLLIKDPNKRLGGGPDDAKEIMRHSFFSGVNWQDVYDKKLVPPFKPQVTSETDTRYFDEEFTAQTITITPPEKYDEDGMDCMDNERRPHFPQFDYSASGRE
Receptor-interacting serine/threonine-protein kinase 1 (Homo sapiens), sequence (Q13546 whole entry, the tested form may be a part): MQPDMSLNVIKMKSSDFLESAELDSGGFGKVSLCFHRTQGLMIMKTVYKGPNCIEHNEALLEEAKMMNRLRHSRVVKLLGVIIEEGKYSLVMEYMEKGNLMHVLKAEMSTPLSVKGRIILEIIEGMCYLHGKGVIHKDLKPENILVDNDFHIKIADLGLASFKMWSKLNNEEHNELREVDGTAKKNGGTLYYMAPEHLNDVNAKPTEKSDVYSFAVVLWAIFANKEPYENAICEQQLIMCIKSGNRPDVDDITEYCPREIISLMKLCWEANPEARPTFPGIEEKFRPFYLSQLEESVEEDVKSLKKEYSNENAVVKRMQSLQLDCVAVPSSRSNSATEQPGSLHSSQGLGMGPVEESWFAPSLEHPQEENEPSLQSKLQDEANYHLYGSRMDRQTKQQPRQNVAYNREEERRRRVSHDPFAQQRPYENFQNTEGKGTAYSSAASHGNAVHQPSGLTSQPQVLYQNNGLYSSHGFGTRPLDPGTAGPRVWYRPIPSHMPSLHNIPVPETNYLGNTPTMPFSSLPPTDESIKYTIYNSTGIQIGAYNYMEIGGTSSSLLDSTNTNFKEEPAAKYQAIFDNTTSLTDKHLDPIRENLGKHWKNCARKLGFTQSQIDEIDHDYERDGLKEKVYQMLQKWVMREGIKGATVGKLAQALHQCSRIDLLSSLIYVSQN

Consider `CS(=O)(=O)c1ccc(-n2nc(-c3cnc4[nH]ccc4c3)c3c(N)ncnc32)cc1`, for which the IC50 in experiment [1] stood at 66 nM. Further, the inhibition in experiment [2] is 70%; in experiment [3], -4%; in [4], -7%; in [5], 13%; in experiment [6], 3%; in experiment [7], 31%. Also, the inhibition was 1% in experiment [8]; 3% in [9]; 69% in experiment [10]; -3% in experiment [11]; -1% in [12]; 65% in experiment [13]. Moreover, the inhibition in experiment [14] was 5%; in [15], -4%; in [16] it was 7%; in experiment [17] it was 4%; in [18], -7%; in [19] it was 3%. Further, the inhibition in experiment [20] is 18%; in experiment [21], 7%; in experiment [22], -5%; in experiment [23], 76%; in [24] it was 16%.

What is called IC50 is the concentration that gives 50% inhibition. As usually defined, the inhibition is the relative decrease from the control value, in per cent.
